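Growth conditions: 96-well plates. Treatment: test compound, 48 hours, 5 concentrations. Analysis: linear interpolation between bracketing concentrations; unreached endpoints set to highest concentration. TGI marks complete inhibition of growth.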

Test systems include K-562 leukemia; UO-31 renal; OVCAR-8 ovarian; NCI-H522 lung; NCI-H460 lung; RPMI-8226 leukemia; SK-MEL-2 melanoma; HCC-2998 colon; SN12C renal; HCT-116 colon; CCRF-CEM leukemia; EKVX NSCLC; U251 CNS.
Assay in all cases: DTP human tumour cell line panel, 48 h

The TGI is the concentration at which net growth stops. `C[C@]12CCC(=O)C=C1CC[C@@H]1[C@@H]2CC[C@]2(C)C(=O)/C(=C/c3ccc([N+](=O)[O-])cc3)C[C@@H]12`: the total growth inhibition concentration (TGI) in the assay with K-562 leukemia, with UO-31 renal, in the assay on OVCAR-8 ovarian, in the assay on NCI-H522 lung, with NCI-H460 lung and with RPMI-8226 leukemia was above 100 µM throughout. In addition, the TGI in the assay with SK-MEL-2 melanoma, with HCC-2998 colon, in the assay on SN12C renal, with HCT-116 colon, with CCRF-CEM leukemia and in the assay on EKVX NSCLC was above 100 µM throughout.
Take `CCCCCCCCCCCCCOCCOCCOCCCCC(O)CCCCCCCCCC1=C[C@H](C)OC1=O` (some centres undefined): the total growth inhibition concentration (TGI) in the assay on K-562 leukemia was above 100 µM; in the assay with U251 CNS, 42.2 µM; in the assay on UO-31 renal it was 44.4 µM; with OVCAR-8 ovarian, above 100 µM; in the assay with NCI-H522 lung it was 16.7 µM; in the assay with NCI-H460 lung, above 100 µM. The TGI is 35.9 µM in the assay on RPMI-8226 leukemia; 63 µM with SK-MEL-2 melanoma; 74.4 µM with HCC-2998 colon; 71.4 µM in the assay with SN12C renal; 33.4 µM in the assay with HCT-116 colon; above 100 µM in the assay with CCRF-CEM leukemia.
Regarding `CCOC(=O)c1ccc(-c2onc(C)c2Br)[nH]1`, the total growth inhibition concentration (TGI) with K-562 leukemia, with U251 CNS, in the assay on UO-31 renal, with OVCAR-8 ovarian, with NCI-H522 lung and with NCI-H460 lung was above 100 µM each time. The TGI in the assay with RPMI-8226 leukemia, with SK-MEL-2 melanoma, with HCC-2998 colon, in the assay on HCT-116 colon and in the assay with EKVX NSCLC was above 100 µM throughout.
Turning to `COc1ccc(/C=C2\C(=O)N(C(=O)c3ccc(NC(C)=O)cc3)N=C2C)cc1OC`, the concentration for total growth inhibition (TGI) with K-562 leukemia, in the assay on UO-31 renal, with OVCAR-8 ovarian, with NCI-H522 lung, with NCI-H460 lung and in the assay with RPMI-8226 leukemia was above 100 µM each time. Moreover, the concentration for total growth inhibition (TGI) with SK-MEL-2 melanoma, with HCC-2998 colon, with SN12C renal, with HCT-116 colon, with CCRF-CEM leukemia and in the assay with EKVX NSCLC was above 100 µM each time.
On to `O=NN(CC1(O)OCC(O)C(O)C1O)C(Cc1c[nH]c2ccccc12)C(=O)O` (centres undefined), for which the TGI in the assay with K-562 leukemia, in the assay with U251 CNS, with OVCAR-8 ovarian, with NCI-H522 lung, with NCI-H460 lung and with RPMI-8226 leukemia was above 100 µM throughout. The TGI with SK-MEL-2 melanoma, in the assay on HCC-2998 colon, in the assay with HCT-116 colon, in the assay with CCRF-CEM leukemia and in the assay with EKVX NSCLC was above 100 µM each time.
With `COC(=O)C1=C(C(=O)OC)C23CC4CCC2(C(=O)C1O3)C4(C)C` (centres undefined), the TGI is above 100 µM in the assay with K-562 leukemia; above 100 µM with U251 CNS; above 100 µM in the assay with UO-31 renal; above 100 µM in the assay on OVCAR-8 ovarian; 48.8 µM with NCI-H522 lung; above 100 µM with NCI-H460 lung. For the same compound, the TGI in the assay with RPMI-8226 leukemia was above 100 µM; in the assay with SK-MEL-2 melanoma it was above 100 µM; with HCC-2998 colon, above 100 µM; in the assay with SN12C renal, above 100 µM; in the assay on HCT-116 colon it was above 100 µM; in the assay with CCRF-CEM leukemia, 66.7 µM.
On to `c1ccc(C/C(=N\Nc2nc3ccccc3[nH]2)c2ccccn2)cc1`, for which the TGI in the assay with K-562 leukemia is above 100 µM; in the assay on U251 CNS, 12.3 µM; with UO-31 renal, 1.88 µM; in the assay on OVCAR-8 ovarian it was 2.08 µM; with NCI-H522 lung, 0.105 µM; with NCI-H460 lung it was 11.3 µM. Further, the TGI in the assay with RPMI-8226 leukemia turned out to be 0.131 µM; with SK-MEL-2 melanoma, 15.3 µM; in the assay on HCC-2998 colon, 30.9 µM; in the assay on SN12C renal it was 10.9 µM; in the assay with HCT-116 colon, 5.18 µM; with CCRF-CEM leukemia, 0.375 µM.
For `CN1CCN(c2n[nH]c(=O)c3c2nnn3Cc2ccccc2)CC1`, the TGI in the assay on K-562 leukemia, in the assay on U251 CNS, with UO-31 renal, with OVCAR-8 ovarian, with NCI-H460 lung and in the assay on RPMI-8226 leukemia was above 100 µM in each case. The TGI in the assay with SK-MEL-2 melanoma, in the assay with HCC-2998 colon, with SN12C renal, with HCT-116 colon, in the assay with CCRF-CEM leukemia and in the assay on EKVX NSCLC was above 100 µM in each case.
Consider `Cc1cccc(-c2cc(=O)c3cccnc3[nH]2)c1`, for which the TGI in the assay with K-562 leukemia is above 100 µM; with U251 CNS, above 100 µM; in the assay on UO-31 renal it was above 100 µM; in the assay with OVCAR-8 ovarian, 53.6 µM; in the assay with NCI-H522 lung, 8.25 µM; with NCI-H460 lung it was above 100 µM. Moreover, the TGI with RPMI-8226 leukemia is above 100 µM; in the assay on HCC-2998 colon, 13.2 µM; in the assay on SN12C renal it was above 100 µM; with HCT-116 colon it was above 100 µM; with CCRF-CEM leukemia, above 100 µM; in the assay on EKVX NSCLC, 87.2 µM.
Take `CCN(CC)P(=O)(c1ccc2c(c1)OCCOCCOCCOCCO2)N(CC)CC`: the total growth inhibition concentration (TGI) in the assay on K-562 leukemia, in the assay with UO-31 renal, with OVCAR-8 ovarian, with NCI-H522 lung, in the assay on NCI-H460 lung and in the assay on RPMI-8226 leukemia was above 100 µM each time. The TGI in the assay on HCC-2998 colon, in the assay with SN12C renal, in the assay with HCT-116 colon, in the assay with CCRF-CEM leukemia and in the assay on EKVX NSCLC was above 100 µM throughout.
Turning to `COc1cc(O)c2c(=O)c3cccc(C)c3[nH]c2c1`, the concentration for total growth inhibition (TGI) in the assay with K-562 leukemia, in the assay on U251 CNS, in the assay with OVCAR-8 ovarian, in the assay on NCI-H522 lung, in the assay with NCI-H460 lung and in the assay on RPMI-8226 leukemia was above 10 µM in each case. Besides, the TGI in the assay on SK-MEL-2 melanoma, in the assay with HCC-2998 colon, in the assay with SN12C renal, in the assay with HCT-116 colon, with CCRF-CEM leukemia and with EKVX NSCLC was above 10 µM in each case.

For the origin of these results see PubChem BioAssay (NCI).
